Measurements reported in patent US6465196B1, “Drug screen for identifying an agent that modulates low density lipoprotein receptor adaptin-ligand binding” (Board of Regents, The University of Texas System, priority 2001, dated 2002).

Key:
[1] = system: a strand of SEQ ID NO:1; assay: Specific hybridization of LDLR adaptin domain-encoding polynucleotides under stringent conditions; format: binding, human; set-up: key: +: hybridize with a strand of SEQ ID NO:1 under Conditions I and/or II; conditions: Conditions I and/or II
From the text: These natural sequence LDLR adaptin polynucleotides provide hybridization probes and replication/amplification primers having a disclosed LDLR adaptin domain encoding cDNA sequence or fragments thereof sufficient to effect specific hybridization thereto. Such primers or probes are at least 12, preferably at least 24, more preferably at least 36 and most preferably at least 96 bases in length.

[2] = molecular target: T1, GST-PTB domain fusion protein (Homo sapiens, UniProt Q5SW96); assay: Fluorescence polarization binding of fluorescent LDLR peptide probe to the PTB domain
T1 construct: made in house
T1 sequence (Q5SW96 48-175): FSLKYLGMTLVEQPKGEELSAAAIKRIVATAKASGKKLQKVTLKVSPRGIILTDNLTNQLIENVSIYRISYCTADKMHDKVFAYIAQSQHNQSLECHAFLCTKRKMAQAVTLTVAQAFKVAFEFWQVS
Experimental: Peptide binding to the GST-PTB domain fusion protein is measured by using fluorescence polarization (also known as fluorescence anisotropy; Li, et al. 1997 Proc. Natl. Acad. Sci. USA 94:7204-7209) is a protocol adapted from Howell et al. 1999 Mol Cell Biol 19, 5179-5188. A16-mer LDLR peptide (acetyl-SINFDNPVYQKTTEDE-amide, residues 820-835 of SEQ ID NO:8) and its phosphorylated analog (phosphate on the tyrosine) are synthesized with an AMS 222 Multiple Peptide Synthesizer using TenetaGel S resin (Rapp Polymere) and purified by high-pressure liquid chromatography. Peptide concentrations are determined by spectrophotometry and confirmed by amino acid analysis. […] Reactions are stopped with 5 μmol of Tris HCl (pH 8.0) and analyzed by thin-layer chromatography (Silica gel 60; methanol-acetic acid-water [4:1:1]). […] Based on fluorescence intensity, the fluorescent peptide (probe) concentration in binding reaction mixtures was estimated to be 20 nM.
Binding measurements are performed in a Beacon 2000 Variable Temperature Fluorescence Polarization System (PanVera Corporation). Essentially, a constant concentration of fluorescent probe peptide is incubated with various concentrations of the GST-PTB domain or GST in 100 μl of 0.5% Triton X-100-20 mM glutathione-200 mM Tris HCl (pH 8.0) at 4° C. and fluorescence polarization is measured. […]

[3] = PTB domain encoding polynucleotides
[4] = CC domain encoding polynucleotides

| Substance | Hybridization [1, 3] | also measured |
| --- | --- | --- |
| SEQ ID NO:1, nucleotides 142-164: LDLR adaptin PTB domain encoding polynucleotide (DNA TTCAGCCTCAAGTACCTGGGCAT; chemistry not given here) | + |  |
| SEQ ID NO:1, nucleotides 185-218: LDLR adaptin PTB domain encoding polynucleotide (DNA AGGGTGAGGAGCTGTCGGCCGCCGCCATCAAGAG; chemistry not given here) | + |  |
| SEQ ID NO:1, nucleotides 249-272: LDLR adaptin PTB domain encoding polynucleotide (DNA GAAGCTGCAGAAGGTGACTCTGAA; chemistry not given here) | + |  |
| SEQ ID NO:1, nucleotides 263-286: LDLR adaptin PTB domain encoding polynucleotide (DNA TGACTCTGAAGGTGTCGCCACGGG; chemistry not given here) | + |  |
| SEQ ID NO:1, nucleotides 297-320: LDLR adaptin PTB domain encoding polynucleotide (DNA GACAGACAACCTCACCAACCAGCT; chemistry not given here) | + |  |
| SEQ ID NO:1, nucleotides 321-344: LDLR adaptin PTB domain encoding polynucleotide (DNA CATTGAGAACGTGTCCATATACAG; chemistry not given here) | + |  |
| SEQ ID NO:1, nucleotides 345-368: LDLR adaptin PTB domain encoding polynucleotide (DNA GATCTCCTATTGCACAGCAGACAA; chemistry not given here) | + |  |
| SEQ ID NO:1, nucleotides 369-392: LDLR adaptin PTB domain encoding polynucleotide (DNA GATGCACGACAAGGTGTTTGCATA; chemistry not given here) | + |  |
| SEQ ID NO:1, nucleotides 393-416: LDLR adaptin PTB domain encoding polynucleotide (DNA CATCGCCCAGAGCCAGCACAACCA; chemistry not given here) | + |  |
| SEQ ID NO:1, nucleotides 417-440: LDLR adaptin PTB domain encoding polynucleotide (DNA GAGCCTCGAGTGCCACGCCTTCCT; chemistry not given here) | + |  |
| SEQ ID NO:1, nucleotides 442-465: LDLR adaptin PTB domain encoding polynucleotide (DNA TGCACCAAGCGGAAGATGGCACAG; chemistry not given here) | + |  |
| SEQ ID NO:1, nucleotides 491-511: LDLR adaptin PTB domain encoding polynucleotide (DNA CCTTCAAAGTCGCCTTTGAGT; chemistry not given here) | + |  |
| SEQ ID NO:1, nucleotides 511-525: LDLR adaptin PTB domain encoding polynucleotide (DNA TTTTGGCAGGTGTCC; chemistry not given here) | + |  |
| SEQ ID NO:1, nucleotides 742-770: LDLR adaptin CC domain encoding polynucleotide (DNA GTCTGGGAGCTGGATGATGGCCTGGATGA; chemistry not given here) |  | Hybridization [1, 4]: + |
| SEQ ID NO:1, nucleotides 775-789: LDLR adaptin CC domain encoding polynucleotide (DNA TTTTCGAGGCTTGCC; chemistry not given here) |  | Hybridization [1, 4]: + |
| SEQ ID NO:1, nucleotides 784-809: LDLR adaptin CC domain encoding polynucleotide (DNA CTTGCCCAGTCTCGGACAAACCCTCA; chemistry not given here) |  | Hybridization [1, 4]: + |
| SEQ ID NO:1, nucleotides 799-824: LDLR adaptin CC domain encoding polynucleotide (DNA ACAAACCCTCAGGTCCTGGACACTGG; chemistry not given here) |  | Hybridization [1, 4]: + |
| SEQ ID NO:1, nucleotides 801-828: LDLR adaptin CC domain encoding polynucleotide (DNA AAACCCTCAGGTCCTGGACACTGGCCTG; chemistry not given here) |  | Hybridization [1, 4]: + |
| acetyl-SINFDNPVYQKTTEDE-amide (Ac-SINFDNPVYQKTTEDE-NH2; also: fluorescein-C6 label, site not given here) [fluorescent probe peptide] |  | Binding, percent of maximum ([2]; after 5 min at 4° C.): 95%; Hill plot slope ([2]; linear Hill plot, noncooperative binding): 1.0 |
